Reference: ChEMBL document CHEMBL3885881, “DrugMatrix”

Species on record: Rattus norvegicus
Assay: DrugMatrix - Regimen: Daily Repeat
Format: toxicity, organism-based, Sprague-Dawley
Parameters: regimen Daily Repeat, gender Male, age 6-8 weeks
Conditions: in vivo, po, route oral GAVAGE, vehicle .5 % CMC; for ABSOLUTE BASOPHIL / ABSOLUTE EOSINOPHIL / ABSOLUTE LYMPHOCYTE / ABSOLUTE MONOCYTE / ABSOLUTE SEGMENTED NEUTROPHIL / BASOPHIL / EOSINOPHIL / ERYTHROCYTE COUNT / HEMATOCRIT / HEMOGLOBIN / LEUKOCYTE COUNT / LYMPHOCYTE / MEAN CORPUSCULAR HEMOGLOBIN / MEAN CORPUSCULAR HEMOGLOBIN CONCENTRATION / MEAN CORPUSCULAR VOLUME / MONOCYTE / NEUTROPHIL / NUCLEATED RED BLOOD CELLS / PLATELET COUNT: tissue Blood; for ALANINE AMINOTRANSFERASE / ALBUMIN / ALKALINE PHOSPHATASE / ASPARTATE AMINOTRANSFERASE / BLOOD UREA NITROGEN / CARBON DIOXIDE / CHLORIDE / CHOLESTEROL / CREATINE PHOSPHOKINASE / CREATININE / GLUCOSE / LACTATE DEHYDROGENASE / LIPASE / PHOSPHORUS / POTASSIUM / SODIUM / TOTAL BILIRUBIN / TOTAL PROTEIN / URIC ACID: tissue Plasma
[1] = 50 mg/kg, 120 h, dose level Low, time 5 day
[2] = 1500 mg/kg, 72 h, dose level High, time 3 day
[3] = 1500 mg/kg, 120 h, dose level High, time 5 day

CN(C)[C@@H]1C(O)=C(C(N)=O)C(=O)[C@@]2(O)C(O)=C3C(=O)c4c(O)ccc(Cl)c4[C@@](C)(O)[C@H]3C[C@@H]12 [CHLORTETRACYCLINE]
ABSOLUTE BASOPHIL [1]: 0 CELLS/uL
ABSOLUTE EOSINOPHIL [1]: 0 CELLS/uL
ABSOLUTE LYMPHOCYTE [1]: 12641 CELLS/uL
ABSOLUTE MONOCYTE [1]: 0 CELLS/uL
ABSOLUTE SEGMENTED NEUTROPHIL [1]: 859 CELLS/uL
BASOPHIL [1]: 0%
EOSINOPHIL [1]: 0%
ERYTHROCYTE COUNT [1]: 5.53 x10E6/uL
HEMATOCRIT [1]: 33.27%
HEMOGLOBIN [1]: 13.43 G/DL
LEUKOCYTE COUNT [1]: 13.5 x10E3/uL
LYMPHOCYTE [1]: 93.33%
MEAN CORPUSCULAR HEMOGLOBIN [1]: 24.33 pg
MEAN CORPUSCULAR HEMOGLOBIN CONCENTRATION [1]: 40.4 G/DL
MEAN CORPUSCULAR VOLUME [1]: 60.17 fL
MONOCYTE [1]: 0%
NEUTROPHIL [1]: 6.67%
NUCLEATED RED BLOOD CELLS [1]: 0 /100WBC
PLATELET COUNT [1]: 1240.33 x10E3/uL
ALANINE AMINOTRANSFERASE [1]: 54 u/L
ALBUMIN [1]: 4.03 G/DL
ALKALINE PHOSPHATASE [1]: 291.33 u/L
ASPARTATE AMINOTRANSFERASE [1]: 84 u/L
BLOOD UREA NITROGEN [1]: 17.33 mg/dL
CARBON DIOXIDE [1]: 22.67 mmol/L
CHLORIDE [1]: 103.33 MEQ/L
CHOLESTEROL [1]: 58.33 mg/dL
CREATINE PHOSPHOKINASE [1]: 329.33 u/L
CREATININE [1]: 0.2 mg/dL
GLUCOSE [1]: 159.67 mg/dL
LACTATE DEHYDROGENASE [1]: 155.33 u/L
LIPASE [1]: 9.33 u/L
PHOSPHORUS [1]: 12.97 mg/dL
POTASSIUM [1]: 6.97 MEQ/L
SODIUM [1]: 144.3 MEQ/L
TOTAL BILIRUBIN [1]: 0.17 mg/dL
TOTAL PROTEIN [1]: 5.73 G/DL
URIC ACID [1]: 2.13 mg/dL
ABSOLUTE BASOPHIL [2]: 0 CELLS/uL
ABSOLUTE EOSINOPHIL [2]: 19 CELLS/uL
ABSOLUTE LYMPHOCYTE [2]: 5616.67 CELLS/uL
ABSOLUTE MONOCYTE [2]: 262.67 CELLS/uL
ABSOLUTE SEGMENTED NEUTROPHIL [2]: 601.67 CELLS/uL
BASOPHIL [2]: 0%
EOSINOPHIL [2]: 0.33%
ERYTHROCYTE COUNT [2]: 5.83 x10E6/uL
HEMATOCRIT [2]: 36%
HEMOGLOBIN [2]: 14.6 G/DL
LEUKOCYTE COUNT [2]: 6.5 x10E3/uL
LYMPHOCYTE [2]: 86%
MEAN CORPUSCULAR HEMOGLOBIN [2]: 25.13 pg
MEAN CORPUSCULAR HEMOGLOBIN CONCENTRATION [2]: 40.57 G/DL
MEAN CORPUSCULAR VOLUME [2]: 61.8 fL
MONOCYTE [2]: 4%
NEUTROPHIL [2]: 9.67%
NUCLEATED RED BLOOD CELLS [2]: 0 /100WBC
PLATELET COUNT [2]: 1359 x10E3/uL
ALANINE AMINOTRANSFERASE [2]: 54 u/L
ALBUMIN [2]: 4.27 G/DL
ALKALINE PHOSPHATASE [2]: 407 u/L
ASPARTATE AMINOTRANSFERASE [2]: 99.33 u/L
BLOOD UREA NITROGEN [2]: 17 mg/dL
CARBON DIOXIDE [2]: 25 mmol/L
CHLORIDE [2]: 104.33 MEQ/L
CHOLESTEROL [2]: 70.33 mg/dL
CREATINE PHOSPHOKINASE [2]: 633 u/L
CREATININE [2]: 0.16 mg/dL
GLUCOSE [2]: 163.67 mg/dL
LACTATE DEHYDROGENASE [2]: 129.67 u/L
LIPASE [2]: 9.33 u/L
PHOSPHORUS [2]: 12.37 mg/dL
POTASSIUM [2]: 5.95 MEQ/L
SODIUM [2]: 148.37 MEQ/L
TOTAL BILIRUBIN [2]: 0.23 mg/dL
TOTAL PROTEIN [2]: 6 G/DL
URIC ACID [2]: 1.87 mg/dL
ABSOLUTE BASOPHIL [3]: 0 CELLS/uL
ABSOLUTE EOSINOPHIL [3]: 167.33 CELLS/uL
ABSOLUTE LYMPHOCYTE [3]: 18100 CELLS/uL
ABSOLUTE MONOCYTE [3]: 0 CELLS/uL
ABSOLUTE SEGMENTED NEUTROPHIL [3]: 1266 CELLS/uL
BASOPHIL [3]: 0%
EOSINOPHIL [3]: 0.67%
ERYTHROCYTE COUNT [3]: 5.62 x10E6/uL
HEMATOCRIT [3]: 34.33%
HEMOGLOBIN [3]: 13.93 G/DL
LEUKOCYTE COUNT [3]: 19.53 x10E3/uL
LYMPHOCYTE [3]: 92.67%
MEAN CORPUSCULAR HEMOGLOBIN [3]: 24.83 pg
MEAN CORPUSCULAR HEMOGLOBIN CONCENTRATION [3]: 40.6 G/DL
MEAN CORPUSCULAR VOLUME [3]: 61.17 fL
MONOCYTE [3]: 0%
NEUTROPHIL [3]: 6.67%
NUCLEATED RED BLOOD CELLS [3]: 0.33 /100WBC
PLATELET COUNT [3]: 1340 x10E3/uL
ALANINE AMINOTRANSFERASE [3]: 61.33 u/L
ALBUMIN [3]: 3.73 G/DL
ALKALINE PHOSPHATASE [3]: 422.33 u/L
ASPARTATE AMINOTRANSFERASE [3]: 86.33 u/L
BLOOD UREA NITROGEN [3]: 19.67 mg/dL
CARBON DIOXIDE [3]: 28.67 mmol/L
CHLORIDE [3]: 100.67 MEQ/L
CHOLESTEROL [3]: 57 mg/dL
CREATINE PHOSPHOKINASE [3]: 301.67 u/L
CREATININE [3]: 0.19 mg/dL
GLUCOSE [3]: 151.33 mg/dL
LACTATE DEHYDROGENASE [3]: 67 u/L
LIPASE [3]: 10.33 u/L
PHOSPHORUS [3]: 11.03 mg/dL
POTASSIUM [3]: 5.95 MEQ/L
SODIUM [3]: 144.1 MEQ/L
TOTAL BILIRUBIN [3]: 0.17 mg/dL
TOTAL PROTEIN [3]: 5.23 G/DL
URIC ACID [3]: 1.57 mg/dL
